Source: patent publication US6737383B1, “Herbicidal oxadiazolidines” (priority 1999, dated 2004)

What was measured:
[1] = test system: morningglory; assay: Test B pre/postemergence morningglory; format: in vivo, Ipomoea hederacea
Outline: (§1)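 Response is a visual 0-to-10 score relative to untreated plants, where 0 means no effect and 10 means complete control, taken twelve to sixteen days after application. Treatments went onto soil at planting and onto foliage of 1- to 4-leaf plants, using a surfactant-containing non-phytotoxic solvent.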

[2] = test system: corn; assay: Test B pre/postemergence corn; format: in vivo, Zea mays
Outline: as §1

[3] = test system: giant foxtail; assay: Test B pre/postemergence giant foxtail; format: in vivo, Setaria faberii
Outline: as §1

[4] = test system: cocklebur; assay: Test B pre/postemergence cocklebur; format: in vivo, Xanthium strumarium
Outline: as §1

[5] = test system: velvetleaf; assay: Test B pre/postemergence velvetleaf; format: in vivo, Abutilon theophrasti
Outline: as §1

[6] = test system: blackgrass; assay: Test B pre/postemergence blackgrass; format: in vivo, Alopecurus myosuroides
Outline: as §1

[7] = test system: bedstraw; assay: Test B pre/postemergence bedstraw; format: in vivo, Galium aparine; settings: Preemergence; for Bedstraw plant response rating: scale 0 to 10, 0 is no effect, 10 is complete control
Outline: as §1

[8] = test system: purple nutsedge; assay: Test B pre/postemergence purple nutsedge; format: in vivo, Cyperus rotundus
Outline: as §1

[9] = test system: rape; assay: Test B pre/postemergence rape; format: in vivo, Brassica napus
Outline: as §1

[10] = test system: wild oat; assay: Test B pre/postemergence wild oat; format: in vivo, Avena fatua
Outline: as §1

[11] = test system: sugar beet; assay: Test B pre/postemergence sugar beet; format: in vivo, Beta vulgaris
Outline: as §1

[12] = test system: crabgrass; assay: Test B pre/postemergence crabgrass; format: in vivo, Digitaria sanguinalis
Outline: as §1

[13] = test system: pigweed; assay: Test B pre/postemergence pigweed; format: in vivo, Amaranthus retroflexus
Outline: as §1

[14] = test system: surinam grass; assay: Test B pre/postemergence surinam grass; format: in vivo, Brachiaria decumbens
Outline: as §1

[15] = test system: soybean; assay: Test B pre/postemergence soybean; format: in vivo, Glycine max
Outline: as §1

[16] = test system: wheat; assay: Test B pre/postemergence wheat; format: in vivo, Triticum aestivum
Outline: as §1

[17] = Postemergence, Rate 62 g/ha, scale of 0 to 10, 0 is no effect, 10 is complete control
[18] = Postemergence, Rate 125 g/ha, scale 0 to 10, 0 is no effect, 10 is complete control
[19] = Postemergence, Rate 500 g/ha, scale 0 to 10, 0 is no effect, 10 is complete control
[20] = Preemergence, Rate 62 g/ha, scale of 0 to 10 where 0 is no effect and 10 is complete control
[21] = Preemergence, Rate 125 g/ha, scale 0 to 10, 0 is no effect, 10 is complete control
[22] = Preemergence, Rate 500 g/ha, scale of 0 to 10 where 0 is no effect and 10 is complete control
[23] = Rate 250 g/ha, Postemergence, scale of 0 to 10 where 0 is no effect and 10 is complete control

## CC(C)N(C(=O)n1oc(=O)n(COCc2ccccc2)c1=O)c1ccc(F)cc1F [Compound 520]
[1]; [17]
  Morningglory plant response rating: 3
[1]; [18]
  Morningglory plant response rating: 4
[1]; [19]
  Plant response rating, Morningglory: 10
[1]; [20]
  Plant response rating, Morningglory: 0
[1]; [21]
  Morningglory plant response rating: 0
[1]; Preemergence, Rate 250 g/ha
  Morningglory plant response rating (0 to 10 scale): 0
[1]; [22]
  Morningglory plant response rating: 0
[1]; [23]
  Plant response rating, Morningglory: 4
[2]; [17]
  Corn plant response rating: 0
[2]; [18]
  Corn plant response rating: 0
[2]; [19]
  Plant response rating, Corn: 0
[2]; [20]
  Plant response rating, Corn: 0
[2]; [21]
  Corn plant response rating: 0
[2]; Preemergence, Rate 250 g/ha
  Corn plant response rating (0 to 10 scale): 0
[2]; [22]
  Corn plant response rating: 0
[2]; [23]
  Plant response rating, Corn: 0
[3]; [17]
  Giant foxtail plant response rating: 2
[3]; [18]
  Giant foxtail plant response rating: 4
[3]; [19]
  Plant response rating, Giant foxtail: 9
[3]; [20]
  Plant response rating, Giant foxtail: 9
[3]; [21]
  Giant foxtail plant response rating: 10
[3]; Preemergence, Rate 250 g/ha
  Giant foxtail plant response rating (0 to 10 scale): 10
[3]; [22]
  Giant foxtail plant response rating: 10
[3]; [23]
  Plant response rating, Giant foxtail: 4
[4]; [17]
  Cocklebur plant response rating: 0
[4]; [18]
  Cocklebur plant response rating: 0
[4]; [19]
  Plant response rating, Cocklebur: 0
[4]; [20]
  Plant response rating, Cocklebur: 0
[4]; [21]
  Cocklebur plant response rating: 0
[4]; Preemergence, Rate 250 g/ha
  Cocklebur plant response rating (0 to 10 scale): 0
[4]; [22]
  Cocklebur plant response rating: 0
[4]; [23]
  Plant response rating, Cocklebur: 0
[5]; [17]
  Velvetleaf plant response rating: 3
[5]; [18]
  Velvetleaf plant response rating: 4
[5]; [19]
  Plant response rating, Velvetleaf: 6
[5]; [20]
  Plant response rating, Velvetleaf: 0
[5]; [21]
  Velvetleaf plant response rating: 0
[5]; Preemergence, Rate 250 g/ha
  Velvetleaf plant response rating (0 to 10 scale): 0
[5]; [22]
  Velvetleaf plant response rating: 0
[5]; [23]
  Plant response rating, Velvetleaf: 4
[6]; [17]
  Blackgrass plant response rating: 0
[6]; [18]
  Blackgrass plant response rating: 0
[6]; [19]
  Plant response rating, Blackgrass: 6
[6]; [20]
  Plant response rating, Blackgrass: 0
[6]; [21]
  Blackgrass plant response rating: 0
[6]; Preemergence, Rate 250 g/ha
  Blackgrass plant response rating (0 to 10 scale): 0
[6]; [22]
  Blackgrass plant response rating: 0
[6]; [23]
  Plant response rating, Blackgrass: 0
[7]; Rate 62 g/ha, scale of 0 to 10 where 0 is no effect and 10 is complete control
  Plant response rating, Bedstraw: 0
[7]; Rate 125 g/ha
  Bedstraw plant response rating: 0
[7]; Rate 250 g/ha
  Bedstraw plant response rating (0 to 10 scale): 0
[7]; Rate 500 g/ha
  Bedstraw plant response rating: 0
[8]; [17]
  Nutsedge plant response rating: 0
[8]; [18]
  Nutsedge plant response rating: 0
[8]; [19]
  Plant response rating, Nutsedge: 0
[8]; [20]
  Plant response rating, Nutsedge: 0
[8]; [21]
  Nutsedge plant response rating: 0
[8]; Preemergence, Rate 250 g/ha
  Nutsedge plant response rating (0 to 10 scale): 0
[8]; [22]
  Nutsedge plant response rating: 0
[8]; [23]
  Plant response rating, Nutsedge: 0
[9]; [17]
  Rape plant response rating: 0
[9]; [18]
  Rape plant response rating: 0
[9]; [19]
  Plant response rating, Rape: 9
[9]; [20]
  Plant response rating, Rape: 0
[9]; [21]
  Rape plant response rating: 0
[9]; Preemergence, Rate 250 g/ha
  Rape plant response rating (0 to 10 scale): 0
[9]; [22]
  Rape plant response rating: 0
[9]; [23]
  Plant response rating, Rape: 0
[10]; [17]
  Wild oats plant response rating: 0
[10]; [18]
  Wild oats plant response rating: 0
[10]; [19]
  Plant response rating, Wild oats: 0
[10]; [20]
  Plant response rating, Wild oats: 0
[10]; [21]
  Wild oats plant response rating: 0
[10]; Preemergence, Rate 250 g/ha
  Wild oats plant response rating (0 to 10 scale): 0
[10]; [22]
  Wild oats plant response rating: 0
[10]; [23]
  Plant response rating, Wild oats: 0
[11]; [17]
  Sugarbeets plant response rating: 0
[11]; [18]
  Sugarbeets plant response rating: 0
[11]; [19]
  Plant response rating, Sugarbeets: 2
[11]; [20]
  Plant response rating, Sugarbeets: 0
[11]; [21]
  Sugarbeets plant response rating: 0
[11]; Preemergence, Rate 250 g/ha
  Sugarbeets plant response rating (0 to 10 scale): 0
[11]; [22]
  Sugarbeets plant response rating: 0
[11]; [23]
  Plant response rating, Sugarbeets: 0
[12]; [17]
  Crabgrass plant response rating: 2
[12]; [18]
  Crabgrass plant response rating: 3
[12]; [19]
  Plant response rating, Crabgrass: 9
[12]; [20]
  Plant response rating, Crabgrass: 9
[12]; [21]
  Crabgrass plant response rating: 9
[12]; Preemergence, Rate 250 g/ha
  Crabgrass plant response rating (0 to 10 scale): 10
[12]; [22]
  Crabgrass plant response rating: 10
[12]; [23]
  Plant response rating, Crabgrass: 4
[13]; [17]
  Redroot pigweed plant response rating: 0
[13]; [18]
  Redroot pigweed plant response rating: 3
[13]; [19]
  Plant response rating, Redroot pigweed: 0
[13]; [20]
  Plant response rating, Redroot pigweed: 0
[13]; [21]
  Redroot pigweed plant response rating: 0
[13]; Preemergence, Rate 250 g/ha
  Redroot pigweed plant response rating (0 to 10 scale): 0
[13]; [22]
  Redroot pigweed plant response rating: 0
[14]; [17]
  B. signalgrass plant response rating: 0
[14]; [18]
  B. signalgrass plant response rating: 0
[14]; [19]
  Plant response rating, B. signalgrass: 2
[14]; [20]
  Plant response rating, B. signalgrass: 0
[14]; [21]
  B. signalgrass plant response rating: 0
[14]; Preemergence, Rate 250 g/ha
  B. signalgrass plant response rating (0 to 10 scale, 0 is no effect, 10 is complete control): 0
[14]; Preemergence, Rate 500 g/ha, scale 0 to 10, 0 is no effect, 10 is complete control
  B. signalgrass plant response rating: 0
[14]; [23]
  Plant response rating, B. signalgrass: 0
[15]; [17]
  Soybean plant response rating: 2
[15]; [18]
  Soybean plant response rating: 4
[15]; [19]
  Plant response rating, Soybean: 4
[15]; [20]
  Plant response rating, Soybean: 0
[15]; [21]
  Soybean plant response rating: 0
[15]; Preemergence, Rate 250 g/ha
  Soybean plant response rating (0 to 10 scale): 0
[15]; [22]
  Soybean plant response rating: 0
[15]; [23]
  Plant response rating, Soybean: 4
[16]; [17]
  Wheat plant response rating: 0
[16]; [18]
  Wheat plant response rating: 0
[16]; [19]
  Plant response rating, Wheat: 0
[16]; [20]
  Plant response rating, Wheat: 0
[16]; [21]
  Wheat plant response rating: 0
[16]; Preemergence, Rate 250 g/ha
  Wheat plant response rating (0 to 10 scale): 0
[16]; [22]
  Wheat plant response rating: 0
[16]; [23]
  Plant response rating, Wheat: 0
